Usually IC50 stands for the midpoint of a concentration-inhibition curve. A higher IC50 goes with weaker potency.

Bounds are passed on as bounds.

Assay [1] concerns the target IL-17A(FLAG-Tagged): IL-17RA(His-Tagged) (Homo sapiens, UniProt Q16552, K93Q). Nature of the assay: IL-17A(FLAG-Tagged): IL-17RA(His-Tagged) Binding Disruption Eu-HTRF Assay. As to conditions: IL-17A/IL-17RA binding disruption, simple average if tested more than once. An outline of the steps: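 IC50 comes from a one-site competition fit of the HTRF 665/620 nm ratio. Compound dilutions (2-fold, 22 points) were held 1 h rt with FLAG-tagged IL-17A dimer, then His-tagged IL-17RA plus Eu-cryptate anti-FLAG and D2 anti-His antibodies were added for 2 h rt.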
A general note: TR-FRET usually uses a lanthanide donor and a delayed reading to cut background.

Assay [2] deals with IL-17A-induced G-CSF production in human normal keratinocyte (NHK). Nature of the assay: NHK Assay: IL-17A-induced G-CSF production in human normal keratinocytes. In kind it is cell-based. Conditions: Homo sapiens, Keratinocyte, 24 h, adult normal human keratinocytes, IL-17A 5 ng/mL, simple average if tested more than once. An outline of the steps: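 HTRF read-out of supernatant G-CSF, quantified from a standard curve, gave IC50 values. Adult keratinocytes, 3000-4000 cells/well, received human IL-17A (5 ng/mL final) pre-mixed 1 h at rt with compound, in 5% FBS and 0.2% DMSO, 24 h at 37° C.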

UniProt Q16552, sequence (Q16552 with tags, fused parts or gaps K93Q): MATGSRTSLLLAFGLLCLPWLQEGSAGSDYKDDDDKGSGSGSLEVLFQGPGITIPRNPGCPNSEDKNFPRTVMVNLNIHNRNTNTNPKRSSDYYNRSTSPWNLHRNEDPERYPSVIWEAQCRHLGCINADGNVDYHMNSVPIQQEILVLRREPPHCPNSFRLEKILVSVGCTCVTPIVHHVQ

Turning to `O=C(CC1CC(F)(F)C1)N[C@@H](c1cnn2cc([C@@H](NC(=O)c3nonc3C3(O)CCCC3)C3CCC(F)(F)CC3)nc2c1)C1CC1` [Example 393, N—((S)-(7-((R)-Cyclopropyl(2-(3,3-difluorocyclobutyl)acetamido)methyl)imidazo[1,2-b]pyridazin-2-yl)(4,4-difluorocyclohexyl)methyl)-4-(1-hydroxycyclopentyl)-1,2,5-oxadiazole-3-carboxamide], the IC50 worked out at 94 nM in assay [1] and 120 nM in assay [2].

In the case of `CC(C)(O)Cc1nonc1C(=O)N[C@H](c1cn2ncc([C@H](NC(=O)CC3CC(F)(F)C3)C3CC3)cc2n1)C1CCC(F)(F)CC1` [Example 394, N—((S)-(7-((R)-Cyclopropyl(2-(3,3-difluorocyclobutyl)acetamido)methyl)imidazo[1,2-b]pyridazin-2-yl)(4,4-difluorocyclohexyl)methyl)-4-(2-hydroxy-2-methylpropyl)-1,2,5-oxadiazole-3-carboxamide], the IC50 in assay [1] stood at 200 nM; in assay [2], 240 nM.

Consider `O=C(CC1CC(F)(F)C1)N[C@@H](c1cnn2cc([C@@H](NC(=O)c3nocc3C3CC3)C3CCC(F)(F)CC3)nc2c1)C1CC1` [Example 403, 4-Cyclopropyl-N—((S)-(7-((R)-cyclopropyl(2-(3,3-difluorocyclobutyl)acetamido)methyl)imidazo[1,2-b]pyridazin-2-yl)(4,4-difluorocyclohexyl)methyl)isoxazole-3-carboxamide], for which the IC50 was 63 nM in assay [1] and 170 nM in assay [2].

For `CN(C)c1nonc1C(=O)N[C@H](c1cn2ncc([C@H](NC(=O)CC3CC(F)(F)C3)C3CC3)cc2n1)C1CCC(F)(F)CC1` [Example 406, N—((S)-(7-((R)-Cyclopropyl(2-(3,3-difluorocyclobutyl)acetamido)methyl)imidazo[1,2-b]pyridazin-2-yl)(4,4-difluorocyclohexyl)methyl)-4-(dimethylamino)-1,2,5-oxadiazole-3-carboxamide], the IC50 in assay [1] amounted to 77 nM; in assay [2], 290 nM.

In the case of `O=C(CC1CC(F)(F)C1)N[C@@H](c1cnn2cc([C@@H](NC(=O)c3nonc3CN3CC(F)C3)C3CCC(F)(F)CC3)nc2c1)C1CC1` [Example 407, N—((S)-(7-((R)-Cyclopropyl(2-(3,3-difluorocyclobutyl)acetamido)methyl)imidazo[1,2-b]pyridazin-2-yl)(4,4-difluorocyclohexyl)methyl)-4-((3-fluoroazetidin-1-yl)methyl)-1,2,5-oxadiazole-3-carboxamide], the results for the IC50 in assay [1] and in assay [2] were 240 nM and 97 nM, respectively.

For the compound `O=C(CC1CC(F)(F)C1)N[C@@H](c1cnn2cc([C@@H](NC(=O)c3nonc3N3CCOCC3)C3CCC(F)(F)CC3)nc2c1)C1CC1` [Example 408, N—((S)-(7-((R)-Cyclopropyl(2-(3,3-difluorocyclobutyl)acetamido)methyl)imidazo[1,2-b]pyridazin-2-yl)(4,4-difluorocyclohexyl)methyl)-4-morpholino-1,2,5-oxadiazole-3-carboxamide], the IC50 in assay [1] is 54 nM; in assay [2], 370 nM.

Take `COc1nonc1C(=O)N[C@H](c1cn2ncc([C@H](NC(=O)CC3CC(F)(F)C3)C3CC3)cc2n1)C1CCC(F)(F)CC1` [Example 409, N—((S)-(7-((R)-Cyclopropyl(2-(3,3-difluorocyclobutyl)acetamido)methyl)imidazo[1,2-b]pyridazin-2-yl)(4,4-difluorocyclohexyl)methyl)-4-methoxy-1,2,5-oxadiazole-3-carboxamide]: the IC50 in assay [1] was found to be 85 nM; in assay [2], 140 nM.

For the compound `CC(C)(O)c1nonc1C(=O)N[C@H](c1cn2ncc([C@H](NC(=O)CC3CC(F)(F)C3)C3CC3)cc2n1)C1CCC(F)(F)CC1` [Example 410, N—((S)-(7-((R)-Cyclopropyl(2-(3,3-difluorocyclobutyl)acetamido)methyl)imidazo[1,2-b]pyridazin-2-yl)(4,4-difluorocyclohexyl)methyl)-4-(2-hydroxypropan-2-yl)-1,2,5-oxadiazole-3-carboxamide], the IC50 in assay [1] was 120 nM; in assay [2], 230 nM.

Take `O=C(N[C@H](c1cn2ncc([C@H](NC(=O)C(F)(F)CC3CC3)C3CC3)cc2n1)C1CCC(F)(F)CC1)c1nonc1C1CC1` [Example 411, 4-Cyclopropyl-N—((S)-(7-((R)-cyclopropyl(3-cyclopropyl-2,2-difluoropropanamido)methyl)imidazo[1,2-b]pyridazin-2-yl)(4,4-difluorocyclohexyl)methyl)-1,2,5-oxadiazole-3-carboxamide]: the IC50 in assay [1] was 78 nM; in assay [2], 49 nM.

Regarding `O=C(CC1CC(F)(F)C1)N[C@@H](c1cnn2cc([C@@H](NC(=O)c3nonc3O)C3CCC(F)(F)CC3)nc2c1)C1CC1` [Example 412, N—((S)-(7-((R)-Cyclopropyl(2-(3,3-difluorocyclobutyl)acetamido)methyl)imidazo[1,2-b]pyridazin-2-yl)(4,4-difluorocyclohexyl)methyl)-4-hydroxy-1,2,5-oxadiazole-3-carboxamide], the IC50 is over 50000 nM in assay [1] and over 20000 nM in assay [2].

For `O=C(CC1CC(F)(F)C1)N[C@@H](c1cnn2cc([C@@H](NC(=O)c3nonc3C(F)F)C3CCC(F)(F)CC3)nc2c1)C1CC1` [Example 413, N—((S)-(7-((R)-Cyclopropyl(2-(3,3-difluorocyclobutyl)acetamido)methyl)imidazo[1,2-b]pyridazin-2-yl)(4,4-difluorocyclohexyl)methyl)-4-(difluoromethyl)-1,2,5-oxadiazole-3-carboxamide], the IC50 in assay [1] was determined as 61 nM; in assay [2], 170 nM.

Consider `O=C(CCC(F)(F)F)N[C@@H](c1cnn2cc([C@@H](NC(=O)c3cncc(C4CC4)c3)C3CCC(F)(F)CC3)nc2c1)C1CC1` [Example 414, 5-Cyclopropyl-N—((S)-(7-((R)-cyclopropyl(4,4,4-trifluorobutanamido)methyl)imidazo[1,2-b]pyridazin-2-yl)(4,4-difluorocyclohexyl)methyl)nicotinamide], for which the results for the IC50 in assay [1] and in assay [2] were 57 nM and 730 nM, respectively.

`CC(C)c1cncc(C(=O)N[C@H](c2cn3ncc([C@H](NC(=O)CCC(F)(F)F)C4CC4)cc3n2)C2CCC(F)(F)CC2)c1` [Example 415, N—((S)-(7-((R)-Cyclopropyl(4,4,4-trifluorobutanamido)methyl)imidazo[1,2-b]pyridazin-2-yl)(4,4-difluorocyclohexyl)methyl)-5-isopropylnicotinamide]: the IC50 in assay [1] is 73 nM; in assay [2], 500 nM.

With `O=C(CCC(F)(F)F)N[C@@H](c1cnn2cc([C@@H](NC(=O)c3cncc(C4CCC4)c3)C3CCC(F)(F)CC3)nc2c1)C1CC1` [Example 416, 5-Cyclobutyl-N—((S)-(7-((R)-cyclopropyl(4,4,4-trifluorobutanamido)methyl)imidazo[1,2-b]pyridazin-2-yl)(4,4-difluorocyclohexyl)methyl)nicotinamide], the 50% inhibitory concentration (IC50) in assay [1] is 62 nM; in assay [2], 550 nM.

`O=C(CCC(F)(F)F)N[C@@H](c1cnn2cc([C@@H](NC(=O)c3cncc(OC(F)F)c3)C3CCC(F)(F)CC3)nc2c1)C1CC1` [Example 417, N—((S)-(7-((R)-Cyclopropyl(4,4,4-trifluorobutanamido)methyl)imidazo[1,2-b]pyridazin-2-yl)(4,4-difluorocyclohexyl)methyl)-5-(difluoromethoxy)nicotinamide]: the IC50 came to 68 nM in assay [1] and 410 nM in assay [2].

In the case of `Cc1cc(C(=O)N[C@H](c2cn3ncc([C@H](NC(=O)CCC(F)(F)F)C4CC4)cc3n2)C2CCC(F)(F)CC2)cnn1` [Example 418, N—((S)-(7-((R)-Cyclopropyl(4,4,4-trifluorobutanamido)methyl)imidazo[1,2-b]pyridazin-2-yl)(4,4-difluorocyclohexyl)methyl)-6-methylpyridazine-4-carboxamide], the results for the IC50 in assay [1] and in assay [2] were 4600 nM and over 20000 nM, respectively.

Take `O=C(CCC(F)(F)F)N[C@@H](c1cnn2cc([C@@H](NC(=O)c3ncccc3OCC(F)(F)F)C3CCC(F)(F)CC3)nc2c1)C1CC1` [Example 419, N—((S)-(7-((R)-Cyclopropyl(4,4,4-trifluorobutanamido)methyl)imidazo[1,2-b]pyridazin-2-yl)(4,4-difluorocyclohexyl)methyl)-3-(2,2,2-trifluoroethoxy)picolinamide]: the IC50 in assay [1] was 1300 nM; in assay [2], over 20000 nM.

Take `N#Cc1cncc(C(=O)N[C@H](c2cn3ncc([C@H](NC(=O)CCC(F)(F)F)C4CC4)cc3n2)C2CCC(F)(F)CC2)c1` [Example 450, 5-Cyano-N—((S)-(7-((R)-cyclopropyl(4,4,4-trifluorobutanamido)methyl)imidazo[1,2-b]pyridazin-2-yl)(4,4-difluorocyclohexyl)methyl)nicotinamide]: the IC50 in assay [1] turned out to be 810 nM; in assay [2] it was 1700 nM.

On to `O=C(CCC(F)(F)F)N[C@@H](c1cnn2cc([C@@H](NC(=O)c3cncc(F)c3)C3CCC(F)(F)CC3)nc2c1)C1CC1` [Example 451, N—((S)-(7-((R)-Cyclopropyl(4,4,4-trifluorobutanamido)methyl)imidazo[1,2-b]pyridazin-2-yl)(4,4-difluorocyclohexyl)methyl)-5-fluoronicotinamide], for which the IC50 stood at 120 nM in assay [1] and 830 nM in assay [2].

Turning to `CCc1cncc(C(=O)N[C@H](c2cn3ncc([C@H](NC(=O)CCC(F)(F)F)C4CC4)cc3n2)C2CCC(F)(F)CC2)c1` [Example 452, N—((S)-(7-((R)-Cyclopropyl(4,4,4-trifluorobutanamido)methyl)imidazo[1,2-b]pyridazin-2-yl)(4,4-difluorocyclohexyl)methyl)-5-ethylnicotinamide], the IC50 in assay [1] came out at 100 nM; in assay [2], 570 nM.

These data come from patent publication US11702422B2, “Imidazopyridazines as modulators of IL-17” (Janssen Pharmaceutica NV, priority 2020, dated 2023).
